From the kinase profiling compilation of Christmann-Franck et al. (2016)

Tests used:
Assay in all cases: radiometric filter-binding kinase assay
[1] = biological target: DYRK1A (human) (UniProt Q13627)
[2] = biological target: MAPK8 (human) (UniProt P45983)
[3] = system: ROCK2 (rat); settings: accession and sequence are those of the human protein
[4] = biological target: DYRK3 (human) (UniProt O43781)
[5] = biological target: CSNK2A1 (human) (UniProt P68400)
[6] = biological target: HIPK2 (human) (UniProt Q9H2X6)
[7] = biological target: CHEK1 (human) (UniProt O14757)
[8] = biological target: CaMK1 (human) (UniProt Q14012)
[9] = biological target: MAPK10 (human) (UniProt P53779)
[10] = biological target: MAPK13 (human) (UniProt O15264)
Sequence of MAPK13 (human) (O15264 whole entry, looked up): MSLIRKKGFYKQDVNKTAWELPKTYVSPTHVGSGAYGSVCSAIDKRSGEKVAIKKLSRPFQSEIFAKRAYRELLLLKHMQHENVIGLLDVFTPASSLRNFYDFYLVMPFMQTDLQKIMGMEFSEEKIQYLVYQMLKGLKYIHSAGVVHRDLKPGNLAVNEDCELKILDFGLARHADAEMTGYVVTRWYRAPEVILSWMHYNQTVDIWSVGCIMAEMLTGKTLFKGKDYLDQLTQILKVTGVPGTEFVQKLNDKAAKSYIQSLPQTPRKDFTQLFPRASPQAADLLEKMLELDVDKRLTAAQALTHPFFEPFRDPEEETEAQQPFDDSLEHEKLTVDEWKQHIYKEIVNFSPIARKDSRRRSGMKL

[11] = system: LCK (mouse); settings: accession and sequence are those of the human protein
[12] = biological target: AURKB (human) (UniProt Q96GD4)
Sequence of AURKB (human) (Q96GD4 whole entry, looked up): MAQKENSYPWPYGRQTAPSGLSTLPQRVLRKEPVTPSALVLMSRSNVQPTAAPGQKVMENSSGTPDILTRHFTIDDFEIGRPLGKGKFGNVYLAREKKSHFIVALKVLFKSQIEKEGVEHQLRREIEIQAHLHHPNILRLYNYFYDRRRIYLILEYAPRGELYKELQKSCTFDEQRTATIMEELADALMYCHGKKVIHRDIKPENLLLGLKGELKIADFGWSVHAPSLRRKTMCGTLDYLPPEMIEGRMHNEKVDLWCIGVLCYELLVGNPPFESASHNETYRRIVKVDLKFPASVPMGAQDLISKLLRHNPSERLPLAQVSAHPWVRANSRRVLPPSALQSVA

[13] = biological target: PHKG1 (human) (UniProt Q16816)
[14] = biological target: BRSK2 (human) (UniProt Q8IWQ3)
Sequence of BRSK2 (human) (Q8IWQ3 whole entry, looked up): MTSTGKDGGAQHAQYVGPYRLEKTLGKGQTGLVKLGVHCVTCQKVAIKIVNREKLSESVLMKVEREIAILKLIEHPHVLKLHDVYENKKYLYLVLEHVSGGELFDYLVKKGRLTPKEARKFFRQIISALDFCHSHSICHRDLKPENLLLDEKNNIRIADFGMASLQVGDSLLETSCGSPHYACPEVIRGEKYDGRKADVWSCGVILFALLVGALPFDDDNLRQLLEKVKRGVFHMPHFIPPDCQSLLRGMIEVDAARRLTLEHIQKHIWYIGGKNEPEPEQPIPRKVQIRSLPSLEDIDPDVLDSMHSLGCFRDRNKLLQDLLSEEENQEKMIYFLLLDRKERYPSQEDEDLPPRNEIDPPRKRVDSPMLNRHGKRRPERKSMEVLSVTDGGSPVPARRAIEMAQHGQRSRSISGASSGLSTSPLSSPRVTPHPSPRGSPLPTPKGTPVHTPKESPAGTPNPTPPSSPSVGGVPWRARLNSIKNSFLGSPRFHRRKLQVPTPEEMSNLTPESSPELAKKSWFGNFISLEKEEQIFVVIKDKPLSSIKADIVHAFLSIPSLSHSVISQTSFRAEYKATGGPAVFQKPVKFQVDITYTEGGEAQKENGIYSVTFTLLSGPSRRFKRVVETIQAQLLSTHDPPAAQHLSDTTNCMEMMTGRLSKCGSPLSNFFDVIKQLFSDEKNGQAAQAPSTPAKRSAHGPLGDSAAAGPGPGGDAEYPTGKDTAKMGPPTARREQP

[15] = biological target: PIM3 (human) (UniProt Q86V86)
[16] = biological target: MAPKAPK5 (human) (UniProt Q8IW41)
Sequence of MAPKAPK5 (human) (Q8IW41 whole entry, looked up): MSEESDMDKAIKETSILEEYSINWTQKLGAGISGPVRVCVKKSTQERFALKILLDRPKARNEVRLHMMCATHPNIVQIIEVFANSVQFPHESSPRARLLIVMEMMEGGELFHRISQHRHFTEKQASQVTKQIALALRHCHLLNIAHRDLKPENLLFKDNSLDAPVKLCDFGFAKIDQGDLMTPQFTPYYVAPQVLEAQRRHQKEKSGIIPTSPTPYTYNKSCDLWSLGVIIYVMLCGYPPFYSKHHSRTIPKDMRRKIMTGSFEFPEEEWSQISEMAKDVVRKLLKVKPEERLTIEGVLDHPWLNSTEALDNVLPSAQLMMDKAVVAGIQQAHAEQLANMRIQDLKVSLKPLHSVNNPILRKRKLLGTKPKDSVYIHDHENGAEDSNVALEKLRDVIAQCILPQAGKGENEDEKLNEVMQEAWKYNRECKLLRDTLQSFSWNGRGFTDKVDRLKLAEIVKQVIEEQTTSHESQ

[17] = biological target: MARK3 (human) (UniProt P27448)
[18] = biological target: MAPK11 (human) (UniProt Q15759)
[19] = biological target: CAMKK2 (human) (UniProt Q96RR4)
[20] = system: SGK1 (human), O00141 [S422D]
Sequence of SGK1 (human), O00141 [S422D] (O00141 whole entry S422D, looked up): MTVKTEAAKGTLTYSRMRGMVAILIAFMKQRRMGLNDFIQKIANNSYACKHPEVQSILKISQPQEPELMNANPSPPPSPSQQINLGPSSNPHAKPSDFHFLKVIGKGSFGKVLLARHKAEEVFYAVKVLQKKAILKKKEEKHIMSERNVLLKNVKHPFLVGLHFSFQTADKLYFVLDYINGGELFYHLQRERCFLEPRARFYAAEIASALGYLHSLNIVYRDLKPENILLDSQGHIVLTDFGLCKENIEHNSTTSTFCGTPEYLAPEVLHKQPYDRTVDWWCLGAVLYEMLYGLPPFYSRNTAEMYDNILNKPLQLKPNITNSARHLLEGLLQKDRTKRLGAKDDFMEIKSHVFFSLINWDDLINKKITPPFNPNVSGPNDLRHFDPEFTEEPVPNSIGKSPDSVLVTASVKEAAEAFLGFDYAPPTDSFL

[21] = biological target: SRPK1 (human) (UniProt Q96SB4)
[22] = biological target: STK3 (human) (UniProt Q13188)
Sequence of STK3 (human) (Q13188 whole entry, looked up): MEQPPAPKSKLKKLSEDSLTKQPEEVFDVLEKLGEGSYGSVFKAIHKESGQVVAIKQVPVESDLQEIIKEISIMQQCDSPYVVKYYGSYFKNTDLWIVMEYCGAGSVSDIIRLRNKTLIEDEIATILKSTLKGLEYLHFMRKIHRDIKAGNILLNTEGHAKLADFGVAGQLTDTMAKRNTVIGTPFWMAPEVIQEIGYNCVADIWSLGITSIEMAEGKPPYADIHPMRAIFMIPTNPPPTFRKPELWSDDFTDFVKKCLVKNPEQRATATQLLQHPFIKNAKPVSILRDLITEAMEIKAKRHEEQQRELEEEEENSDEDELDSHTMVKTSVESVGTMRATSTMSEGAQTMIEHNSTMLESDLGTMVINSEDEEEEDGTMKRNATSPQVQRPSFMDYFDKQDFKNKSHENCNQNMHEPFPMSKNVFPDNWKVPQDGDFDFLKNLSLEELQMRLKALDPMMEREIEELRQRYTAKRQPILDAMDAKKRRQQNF

[23] = biological target: MKNK1 (human) (UniProt Q9BUB5)
Sequence of MKNK1 (human) (Q9BUB5 whole entry, looked up): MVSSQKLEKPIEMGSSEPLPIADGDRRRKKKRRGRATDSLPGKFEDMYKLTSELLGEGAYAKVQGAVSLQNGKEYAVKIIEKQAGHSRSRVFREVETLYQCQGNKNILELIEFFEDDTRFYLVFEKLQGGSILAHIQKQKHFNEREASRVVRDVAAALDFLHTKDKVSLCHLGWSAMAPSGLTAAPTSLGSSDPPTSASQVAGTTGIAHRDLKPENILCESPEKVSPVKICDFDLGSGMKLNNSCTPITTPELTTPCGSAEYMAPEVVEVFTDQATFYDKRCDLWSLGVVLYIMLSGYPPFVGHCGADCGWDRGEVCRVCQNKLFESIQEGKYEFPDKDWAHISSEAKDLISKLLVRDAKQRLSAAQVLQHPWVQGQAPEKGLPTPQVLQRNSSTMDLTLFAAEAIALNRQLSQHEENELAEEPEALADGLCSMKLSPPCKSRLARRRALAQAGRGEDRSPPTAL

[24] = biological target: IGF1R (human) (UniProt P08069)
Sequence of IGF1R (human) (P08069 whole entry, looked up): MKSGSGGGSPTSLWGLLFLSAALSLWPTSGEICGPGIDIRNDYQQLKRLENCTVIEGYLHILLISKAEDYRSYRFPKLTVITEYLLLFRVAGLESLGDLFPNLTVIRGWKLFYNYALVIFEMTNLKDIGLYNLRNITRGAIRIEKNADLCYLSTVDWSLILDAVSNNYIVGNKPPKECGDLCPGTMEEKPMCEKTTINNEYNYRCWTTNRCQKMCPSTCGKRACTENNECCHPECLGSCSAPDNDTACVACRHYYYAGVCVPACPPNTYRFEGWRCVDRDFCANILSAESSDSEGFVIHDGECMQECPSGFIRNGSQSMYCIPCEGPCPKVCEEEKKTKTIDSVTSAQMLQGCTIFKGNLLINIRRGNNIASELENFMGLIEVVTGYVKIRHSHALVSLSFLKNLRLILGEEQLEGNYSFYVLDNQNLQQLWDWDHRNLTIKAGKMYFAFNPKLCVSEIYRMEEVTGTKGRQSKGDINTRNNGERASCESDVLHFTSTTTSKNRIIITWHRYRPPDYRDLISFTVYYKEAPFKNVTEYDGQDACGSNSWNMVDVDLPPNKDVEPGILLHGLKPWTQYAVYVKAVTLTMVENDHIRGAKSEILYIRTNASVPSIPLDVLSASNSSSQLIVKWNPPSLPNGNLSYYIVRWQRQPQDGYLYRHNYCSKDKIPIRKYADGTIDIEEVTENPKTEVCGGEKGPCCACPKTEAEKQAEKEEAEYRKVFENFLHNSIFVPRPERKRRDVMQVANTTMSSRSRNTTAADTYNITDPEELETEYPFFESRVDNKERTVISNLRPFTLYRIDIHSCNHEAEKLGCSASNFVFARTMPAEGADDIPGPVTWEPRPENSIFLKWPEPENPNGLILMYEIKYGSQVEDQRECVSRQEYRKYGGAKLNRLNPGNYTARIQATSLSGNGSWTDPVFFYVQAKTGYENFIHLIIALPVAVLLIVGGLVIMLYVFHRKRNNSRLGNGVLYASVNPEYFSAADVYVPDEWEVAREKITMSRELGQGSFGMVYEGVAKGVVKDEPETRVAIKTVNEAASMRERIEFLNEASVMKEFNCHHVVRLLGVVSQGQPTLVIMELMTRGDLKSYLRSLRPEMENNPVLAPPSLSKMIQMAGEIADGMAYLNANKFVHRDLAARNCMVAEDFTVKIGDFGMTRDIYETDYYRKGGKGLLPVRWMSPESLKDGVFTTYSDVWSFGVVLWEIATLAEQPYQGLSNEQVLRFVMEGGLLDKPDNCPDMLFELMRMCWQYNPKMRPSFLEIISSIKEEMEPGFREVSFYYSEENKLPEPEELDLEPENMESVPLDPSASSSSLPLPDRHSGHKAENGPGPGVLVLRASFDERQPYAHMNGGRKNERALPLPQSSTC

[25] = biological target: YES1 (human) (UniProt P07947)
[26] = biological target: TBK1 (human) (UniProt Q9UHD2)
[27] = biological target: FGFR1 (human) (UniProt P11362)

Cc1cccc(Nc2nn(C)c3ncnc(N)c23)c1 showed a residual activity ([1]; compound 1.0 µM) of 90%, a residual activity ([1]; compound 10.0 µM) of 101% and a residual activity ([2]; compound 1.0 µM) of 99%. It also gave a residual activity ([2]; compound 10.0 µM) of 97%, a residual activity ([3]; compound 1.0 µM) of 117% and a residual activity ([3]; compound 10.0 µM) of 106%. It also gave a residual activity ([4]; compound 1.0 µM) of 136%, a residual activity ([4]; compound 10.0 µM) of 137% and a residual activity ([5]; compound 1.0 µM) of 93%. It also gave a residual activity ([5]; compound 10.0 µM) of 93%, a residual activity ([6]; compound 1.0 µM) of 124% and a residual activity ([6]; compound 10.0 µM) of 125%. It also gave a residual activity ([7]; compound 1.0 µM) of 109%, a residual activity ([7]; compound 10.0 µM) of 115% and a residual activity ([8]; compound 1.0 µM) of 92%. The residual activity ([8]; compound 10.0 µM) was 89%, the residual activity ([9]; compound 1.0 µM) was 101% and the residual activity ([9]; compound 10.0 µM) was 102%. For the same compound, the residual activity ([10]; compound 1.0 µM) was 101%, the residual activity ([10]; compound 10.0 µM) was 105% and the residual activity ([11]; compound 1.0 µM) was 125%. It also gave a residual activity ([11]; compound 10.0 µM) of 131%, a residual activity ([12]; compound 1.0 µM) of 96% and a residual activity ([12]; compound 10.0 µM) of 87%. It also gave a residual activity ([13]; compound 1.0 µM) of 106%, a residual activity ([13]; compound 10.0 µM) of 101% and a residual activity ([14]; compound 1.0 µM) of 102%. The residual activity ([14]; compound 10.0 µM) was 100%, the residual activity ([15]; compound 1.0 µM) was 120% and the residual activity ([15]; compound 10.0 µM) was 121%. For the same compound, the residual activity ([16]; compound 1.0 µM) was 101%, the residual activity ([16]; compound 10.0 µM) was 109% and the residual activity ([17]; compound 1.0 µM) was 89%. The residual activity ([17]; compound 10.0 µM) was 94%, the residual activity ([18]; compound 1.0 µM) was 131% and the residual activity ([18]; compound 10.0 µM) was 111%. The residual activity ([19]; compound 1.0 µM) was 125%, the residual activity ([19]; compound 10.0 µM) was 117% and the residual activity ([20]; compound 1.0 µM) was 104%. The residual activity ([20]; compound 10.0 µM) was 113%, the residual activity ([21]; compound 1.0 µM) was 107% and the residual activity ([21]; compound 10.0 µM) was 98%. The residual activity ([22]; compound 1.0 µM) was 90%, the residual activity ([22]; compound 10.0 µM) was 102% and the residual activity ([23]; compound 1.0 µM) was 92%. For the same compound, the residual activity ([23]; compound 10.0 µM) was 96%.
With CCc1cncnc1N1CCN(Cc2nc3cc(C(F)(F)F)ccc3[nH]2)CC1 the residual activity ([1]; compound 0.1 µM) was 99%, the residual activity ([1]; compound 1.0 µM) was 94% and the residual activity ([1]; compound 10.0 µM) was 85%. It also gave a residual activity ([2]; compound 1.0 µM) of 107%, a residual activity ([2]; compound 10.0 µM) of 95% and a residual activity ([3]; compound 0.1 µM) of 98%. It also gave a residual activity ([3]; compound 1.0 µM) of 91%, a residual activity ([3]; compound 10.0 µM) of 58% and a residual activity ([4]; compound 0.1 µM) of 106%. The residual activity ([4]; compound 1.0 µM) was 92%, the residual activity ([4]; compound 10.0 µM) was 83% and the residual activity ([5]; compound 0.1 µM) was 96%. It also gave a residual activity ([5]; compound 1.0 µM) of 92%, a residual activity ([5]; compound 10.0 µM) of 83% and a residual activity ([6]; compound 0.1 µM) of 108%. For the same compound, the residual activity ([6]; compound 1.0 µM) was 86%, the residual activity ([6]; compound 10.0 µM) was 88% and the residual activity ([7]; compound 0.1 µM) was 90%. It also gave a residual activity ([7]; compound 1.0 µM) of 83%, a residual activity ([7]; compound 10.0 µM) of 83% and a residual activity ([24]; compound 0.1 µM) of 72%. It also gave a residual activity ([24]; compound 1.0 µM) of 95%, a residual activity ([24]; compound 10.0 µM) of 82% and a residual activity ([8]; compound 0.1 µM) of 106%. The residual activity ([8]; compound 10.0 µM) was 78%, the residual activity ([10]; compound 0.1 µM) was 89% and the residual activity ([10]; compound 1.0 µM) was 82%. It also gave a residual activity ([10]; compound 10.0 µM) of 91%, a residual activity ([25]; compound 0.1 µM) of 98% and a residual activity ([25]; compound 1.0 µM) of 84%. The residual activity ([25]; compound 10.0 µM) was 76%, the residual activity ([26]; compound 0.1 µM) was 108% and the residual activity ([26]; compound 1.0 µM) was 105%. The residual activity ([26]; compound 10.0 µM) was 97%, the residual activity ([11]; compound 0.1 µM) was 91% and the residual activity ([11]; compound 1.0 µM) was 92%. The residual activity ([11]; compound 10.0 µM) was 88%, the residual activity ([12]; compound 0.1 µM) was 89% and the residual activity ([12]; compound 1.0 µM) was 87%. For the same compound, the residual activity ([12]; compound 10.0 µM) was 49%, the residual activity ([13]; compound 0.1 µM) was 100% and the residual activity ([13]; compound 1.0 µM) was 96%. It also gave a residual activity ([13]; compound 10.0 µM) of 104%, a residual activity ([14]; compound 0.1 µM) of 88% and a residual activity ([14]; compound 1.0 µM) of 84%. The residual activity ([14]; compound 10.0 µM) was 83%, the residual activity ([15]; compound 0.1 µM) was 93% and the residual activity ([15]; compound 1.0 µM) was 88%. The residual activity ([15]; compound 10.0 µM) was 83%, the residual activity ([16]; compound 0.1 µM) was 114% and the residual activity ([16]; compound 1.0 µM) was 97%. It also gave a residual activity ([16]; compound 10.0 µM) of 87%, a residual activity ([17]; compound 0.1 µM) of 94% and a residual activity ([17]; compound 1.0 µM) of 83%. The residual activity ([17]; compound 10.0 µM) was 82%, the residual activity ([18]; compound 0.1 µM) was 88% and the residual activity ([18]; compound 1.0 µM) was 89%. The residual activity ([18]; compound 10.0 µM) was 97%, the residual activity ([19]; compound 0.1 µM) was 99% and the residual activity ([19]; compound 1.0 µM) was 98%. For the same compound, the residual activity ([19]; compound 10.0 µM) was 80%, the residual activity ([27]; compound 0.1 µM) was 91% and the residual activity ([27]; compound 1.0 µM) was 92%. The residual activity ([27]; compound 10.0 µM) was 63%, the residual activity ([20]; compound 0.1 µM) was 106% and the residual activity ([20]; compound 1.0 µM) was 74%. For the same compound, the residual activity ([20]; compound 10.0 µM) was 65%, the residual activity ([21]; compound 0.1 µM) was 108% and the residual activity ([21]; compound 1.0 µM) was 106%. For the same compound, the residual activity ([21]; compound 10.0 µM) was 101%, the residual activity ([22]; compound 0.1 µM) was 95% and the residual activity ([22]; compound 1.0 µM) was 85%. The residual activity ([22]; compound 10.0 µM) was 77%, the residual activity ([23]; compound 0.1 µM) was 101% and the residual activity ([23]; compound 1.0 µM) was 91%. For the same compound, the residual activity ([23]; compound 10.0 µM) was 79%.
